Biological target: P. falciparum apicoplast DNA polymerase (Pf-apPOL) (Plasmodium falciparum, UniProt Q8ILY1)
Assay: Fluorescence-based high-throughput DNA polymerase assay (molecular beacon), primary screen and dose-response
Assay type: biochemical
Conditions: for DNA Pol: unit not given, 90 min, 10 µM; for % inhibition apPOL 180' 2.5 / % inhibition apPOL 180' 5 / % inhibition apPOL 180' 10 / % inhibition apPOL 180' 20 / % inhibition apPOL 180' 40 / % inhibition apPOL 180' 80: read at 180'
In short: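 Single-point screening used 10 µM compound with 20 nM polymerase, 20 nM hairpin substrate and 6 µM dNTPs for 90 min at 25 °C. Confirmatory titrations (2.5–80 µM) followed fluorescence at three times, and IC50 was derived from a fit including a cooperativity term n.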

P. falciparum apicoplast DNA polymerase (Pf-apPOL), sequence (Q8ILY1 entry or part of it): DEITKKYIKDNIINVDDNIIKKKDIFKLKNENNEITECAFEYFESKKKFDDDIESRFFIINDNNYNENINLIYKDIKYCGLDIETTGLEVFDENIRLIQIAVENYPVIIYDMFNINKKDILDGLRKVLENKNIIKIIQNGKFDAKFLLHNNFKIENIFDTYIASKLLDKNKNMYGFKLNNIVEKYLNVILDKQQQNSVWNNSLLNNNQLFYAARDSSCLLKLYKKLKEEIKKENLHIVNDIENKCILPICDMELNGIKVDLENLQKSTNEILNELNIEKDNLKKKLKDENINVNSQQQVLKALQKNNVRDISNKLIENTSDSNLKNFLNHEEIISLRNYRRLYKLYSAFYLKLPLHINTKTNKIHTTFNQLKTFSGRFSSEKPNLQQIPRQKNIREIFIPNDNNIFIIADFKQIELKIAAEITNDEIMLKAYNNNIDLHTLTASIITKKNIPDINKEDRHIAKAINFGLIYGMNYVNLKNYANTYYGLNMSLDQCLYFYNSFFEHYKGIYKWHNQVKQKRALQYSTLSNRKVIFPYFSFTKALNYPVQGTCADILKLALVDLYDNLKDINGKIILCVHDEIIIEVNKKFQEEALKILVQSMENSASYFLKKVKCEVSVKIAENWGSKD

O=C(CCc1csc(NC(=O)Nc2ccccc2)n1)Nc1nc2ccccc2s1 [KU0177354]
DNA Pol (186 hits, DNA Pol (screen value)): 40
DNA Pol ('DNA Pol' (screen value)): 40
% inhibition Apo pol 10' 2.5 (DRC-1, read at 10', concentration 2.5): 5.576%
% inhibition Apo pol 10' 5 (DRC-1, read at 10', concentration 5): 8.503%
% inhibition Apo pol 10' 10 (DRC-1, read at 10', concentration 10): 43.0217%
% inhibition Apo pol 10' 20 (DRC-1, read at 10', concentration 20): 76.9078%
% inhibition Apo pol 10' 40 (DRC-1, read at 10', concentration 40): 79.3304%
% inhibition Apo pol 10' 80 (DRC-1, read at 10', concentration 80): 82.5837%
% inhibition Apol 90' 2.5 (DRC-1, read at 90', concentration 2.5): -1.376%
% inhibition Apol 90' 5 (DRC-1, read at 90', concentration 5): -0.284%
% inhibition Apol 90' 10 (DRC-1, read at 90', concentration 10): 25.6988%
% inhibition Apol 90' 20 (DRC-1, read at 90', concentration 20): 59.1025%
% inhibition Apol 90' 40 (DRC-1, read at 90', concentration 40): 63.1922%
% inhibition Apol 90' 80 (DRC-1, read at 90', concentration 80): 69.3927%
% inhibition apPOL 180' 2.5 (DRC-1, concentration 2.5): -6.865%
% inhibition apPOL 180' 5 (DRC-1, concentration 5): -6.2%
% inhibition apPOL 180' 10 (DRC-1, concentration 10): 11.7395%
% inhibition apPOL 180' 20 (DRC-1, concentration 20): 39.4261%
% inhibition apPOL 180' 40 (DRC-1, concentration 40): 45.9927%
% inhibition apPOL 180' 80 (DRC-1, concentration 80): 55.8861%
% inhibition Apo pol 5' (DRC-2, concentration 5): -6%
% inhibition Apo pol 5' (DRC-2, concentration 20): 37%
% inhibition Apol 40' (DRC-2, concentration 5): -6%
% inhibition Apol 40' (DRC-2, concentration 10): 46%
% inhibition Apol 40' (DRC-2, concentration 20): 49%
% inhibition Apol 40' (DRC-2, concentration 40): 53%
% inhibition Apol 40' (DRC-2, concentration 80): 49%
% inhibition ApPOL 90' (DRC-2, 90', concentration 40): 53%
% inhibition apPOL 180' (DRC-2, concentration 20): 37%
% inhibition apPOL 180' (DRC-2, concentration 80): 46%
% inhibition Apo pol 5' 2.5 (DRC-2, read at 5', concentration 2.5): -3.16%
% inhibition Apo pol 5' 5 (DRC-2, read at 5', concentration 5): -6%
% inhibition Apo pol 5' 10 (DRC-2, read at 5', concentration 10): 38%
% inhibition Apo pol 5' 20 (DRC-2, read at 5', concentration 20): 37%
% inhibition Apo pol 5' 40 (DRC-2, read at 5', concentration 40): 34%
% inhibition Apo pol 5' 80 (DRC-2, read at 5', concentration 80): 29%
% inhibition Apol 40' 2.5 (DRC-2, read at 40', concentration 2.5): -3.41%
% inhibition Apol 40' 5 (DRC-2, read at 40', concentration 5): -6%
% inhibition Apol 40' 10 (DRC-2, read at 40', concentration 10): 46%
% inhibition Apol 40' 20 (DRC-2, read at 40', concentration 20): 49%
% inhibition Apol 40' 40 (DRC-2, read at 40', concentration 40): 53%
% inhibition Apol 40' 80 (DRC-2, read at 40', concentration 80): 49%
% inhibition ApPOL 90' 2.5 (DRC-2, read at 90', concentration 2.5): -4%
% inhibition ApPOL 90' 5 (DRC-2, read at 90', concentration 5): -7%
% inhibition ApPOL 90' 10 (DRC-2, read at 90', concentration 10): 43%
% inhibition ApPOL 90' 20 (DRC-2, read at 90', concentration 20): 48%
% inhibition ApPOL 90' 40 (DRC-2, read at 90', concentration 40): 53%
% inhibition ApPOL 90' 80 (DRC-2, read at 90', concentration 80): 51%
% inhibition apPOL 180' 2.5 (DRC-2, concentration 2.5): -8%
% inhibition apPOL 180' 5 (DRC-2, concentration 5): -12%
% inhibition apPOL 180' 10 (DRC-2, concentration 10): 32%
% inhibition apPOL 180' 20 (DRC-2, concentration 20): 37%
% inhibition apPOL 180' 40 (DRC-2, concentration 40): 47%
% inhibition apPOL 180' 80 (DRC-2, concentration 80): 46%

From paper PMC9090415, “Discovery of small molecule inhibitors of Plasmodium falciparum apicoplast DNA polymerase” (Journal of Enzyme Inhibition and Medicinal Chemistry, 2022)
